According to PubChem BioAssay AID1963871 (Molecular Pharmacology Branch, DTP, NCI, 2024):

Test system: KRAS-mutant PDC multicell tumor spheroid viability
Experiment: Anticancer human tumor 521955-158-R2-J5-PDC patient-derived pancreatic carcinoma cell line growth inhibition [KRAS2]
Conditions: for IC50: curve of first compound; for viability, T/C: stronger effect = lower value
Procedure, shortened: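 KRAS-mutant tumor cells were grown as spheroids with HUVEC endothelial cells and human MSCs as stroma. Targeted agents were tested alone and with KRAS pathway inhibitors. Doses started at or near clinical Cmax, or 10 microM, descending half-log.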

[1] = second compound 0.1 µM, first compound 0.0316 µM
[2] = second compound 0.1 µM, first compound 0.1 µM
[3] = second compound 0.1 µM, first compound 0.316 µM
[4] = second compound 0.1 µM, first compound 1 µM
[5] = second compound 0.1 µM, first compound 3.16 µM
[6] = second compound 0.1 µM, first compound 10 µM
[7] = second compound 0.316 µM, first compound 0.0316 µM
[8] = second compound 0.316 µM, first compound 0.1 µM
[9] = second compound 0.316 µM, first compound 0.316 µM
[10] = second compound 0.316 µM, first compound 1 µM
[11] = second compound 0.316 µM, first compound 3.16 µM
[12] = second compound 0.316 µM, first compound 10 µM
[13] = second compound 1 µM, first compound 0.0316 µM
[14] = second compound 1 µM, first compound 0.1 µM
[15] = second compound 1 µM, first compound 0.316 µM
[16] = second compound 1 µM, first compound 1 µM
[17] = second compound 1 µM, first compound 3.16 µM
[18] = second compound 1 µM, first compound 10 µM
[19] = second compound 3.16 µM, first compound 0.0316 µM
[20] = second compound 3.16 µM, first compound 0.1 µM
[21] = second compound 3.16 µM, first compound 0.316 µM
[22] = second compound 3.16 µM, first compound 1 µM
[23] = second compound 3.16 µM, first compound 3.16 µM
[24] = second compound 3.16 µM, first compound 10 µM
[25] = second compound 10 µM, first compound 0.0316 µM
[26] = second compound 10 µM, first compound 0.1 µM
[27] = second compound 10 µM, first compound 0.316 µM
[28] = second compound 10 µM, first compound 1 µM
[29] = second compound 10 µM, first compound 3.16 µM
[30] = second compound 10 µM, first compound 10 µM
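Further: viability read after seven days of drug exposure.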

With `COc1cc(Nc2ncc3c(n2)-c2ccc(Cl)cc2C(c2c(F)cccc2OC)=NC3)ccc1C(=O)O` + COc1cc2nc(C)nc(NC(C)c3cc(N)cc(C(F)(F)F)c3)c2cc1OC1CCOC1 the IC50 (second compound 0.1 µM) was under 0.0316 µM, the IC50 (second compound 0.316 µM) was under 0.0316 µM and the IC50 (second compound 1 µM) was under 0.0316 µM. The IC50 (second compound 3.16 µM) was under 0.0316 µM, the IC50 (second compound 10 µM) was under 0.0316 µM and the viability, T/C [1] was 40.5%. The viability, T/C [2] was 35.1%, the viability, T/C [3] was 41.5% and the viability, T/C [4] was 37.5%. It also gave a viability, T/C [5] of 37.2%, a viability, T/C [6] of 33.2% and a viability, T/C [7] of 45.3%. The viability, T/C [8] was 38.4%, the viability, T/C [9] was 40.7% and the viability, T/C [10] was 36.7%. It also gave a viability, T/C [11] of 37.3%, a viability, T/C [12] of 34.6% and a viability, T/C [13] of 46.9%. The viability, T/C [14] was 35.4%, the viability, T/C [15] was 39.4% and the viability, T/C [16] was 40.5%. For the same compound, the viability, T/C [17] was 33%, the viability, T/C [18] was 34.2% and the viability, T/C [19] was 38.5%. It also gave a viability, T/C [20] of 32%, a viability, T/C [21] of 32.5% and a viability, T/C [22] of 33.7%. It also gave a viability, T/C [23] of 30.1%, a viability, T/C [24] of 31.6% and a viability, T/C [25] of 11.7%. It also gave a viability, T/C [26] of 2.43%, a viability, T/C [27] of 2.29% and a viability, T/C [28] of 2.71%. For the same compound, the viability, T/C [29] was 10.7% and the viability, T/C [30] was 2.59%.
`COc1cc2nccc(Oc3ccc(NC(=O)C4(C(=O)Nc5ccc(F)cc5)CC4)cc3)c2cc1OC` + COc1cc2nc(C)nc(NC(C)c3cc(N)cc(C(F)(F)F)c3)c2cc1OC1CCOC1 showed an IC50 (second compound 0.1 µM) of 7.43 µM, an IC50 (second compound 0.316 µM) of 7.59 µM and an IC50 (second compound 1 µM) of 5.58 µM. It also gave an IC50 (second compound 3.16 µM) of 3.27 µM, an IC50 (second compound 10 µM) of 1.47 µM and a viability, T/C [1] of 93.7%. For the same compound, the viability, T/C [2] was 99.6%, the viability, T/C [3] was 88.6% and the viability, T/C [4] was 95.1%. It also gave a viability, T/C [5] of 85.6%, a viability, T/C [6] of 37.4% and a viability, T/C [7] of 99.7%. It also gave a viability, T/C [8] of 98.1%, a viability, T/C [9] of 88.6% and a viability, T/C [10] of 88.9%. For the same compound, the viability, T/C [11] was 83.6%, the viability, T/C [12] was 39.5% and the viability, T/C [13] was 89%. It also gave a viability, T/C [14] of 96.1%, a viability, T/C [15] of 96.6% and a viability, T/C [16] of 90.1%. The viability, T/C [17] was 72%, the viability, T/C [18] was 27.5% and the viability, T/C [19] was 100%. For the same compound, the viability, T/C [20] was 96.8%, the viability, T/C [21] was 101% and the viability, T/C [22] was 105%. It also gave a viability, T/C [23] of 51.2%, a viability, T/C [24] of 6.41% and a viability, T/C [25] of 93.4%. It also gave a viability, T/C [26] of 73.2%, a viability, T/C [27] of 67% and a viability, T/C [28] of 74.8%. The viability, T/C [29] was 0.78% and the viability, T/C [30] was 0.24%.
